# Experimental data as given in patent publication US10167257B2, “Indole derivatives for use in medicine” (IOmet Pharma Ltd., priority 2014, dated 2019).
# Tests used:
# IDO (SKOV-3 cells) = target: T1, IDO (SKOV-3 cells) (Homo sapiens, UniProt P14902); test: IDO cell-based assay (SKOV-3, IFNγ-induced), kynurenine production; settings: SKOV-3 ovary adenocarcinoma cells, IFNγ 500 ng/ml, 500 μM L-Trp, 48 h, kynurenine by absorbance at 490 nm
# T1 construct: This assay utilised cancer cells which expressed either TDO or IDO; host or cells: SKOV-3 ovary adenocarcinoma cells, IFNγ-induced
# T1 sequence (P14902 whole entry): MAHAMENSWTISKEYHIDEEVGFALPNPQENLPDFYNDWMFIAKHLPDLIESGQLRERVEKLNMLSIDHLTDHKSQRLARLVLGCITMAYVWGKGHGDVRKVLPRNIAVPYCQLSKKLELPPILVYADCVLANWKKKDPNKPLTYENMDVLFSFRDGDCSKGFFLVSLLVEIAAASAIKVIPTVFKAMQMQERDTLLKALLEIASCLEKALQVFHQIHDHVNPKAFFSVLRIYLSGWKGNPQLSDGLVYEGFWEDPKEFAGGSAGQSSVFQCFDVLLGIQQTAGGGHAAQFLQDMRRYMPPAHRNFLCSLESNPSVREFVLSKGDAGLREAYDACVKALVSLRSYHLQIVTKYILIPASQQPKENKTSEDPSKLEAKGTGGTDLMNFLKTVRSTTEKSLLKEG
# Text: (§1) Two different types of assay were employed: 1. A TDO and IDO biochemical coupled assay which utilised recombinantly produced and purified TDO and IDO enzymes in combination with the enzyme formamidase. This coupled enzyme system allowed conversion of N-formylkynurenine produced by TDO or IDO activity to kynurenine which was then quantified by fluorescence following addition of Erhlich's Reagent. 2. A cell-based assay for detecting the effect of test compounds on kynurenine production in two different cancer cell types. This assay utilised cancer cells which expressed either TDO or IDO and as such was used as a means of testing compound activity at these two enzymes in a cell-based context. The protocols for these are set out below.
# (§2) A172 human glioblastoma (ATCC) were grown in DMEM+2 mM L-glutamine medium supplemented with 10% foetal bovine serum and SKOV-3 ovary adenocarcinoma (ATCC) cells were grown in McCoys 5A+L-glutamax medium supplemented with 15% foetal bovine serum. On the day of assay, cells were detached using trypsin-EDTA (0.25% v/v), re-suspended in assay media (RPMI 1640 phenol red free+L-glutamine supplemented with 10% dialysed foetal bovine serum). A172 cells were seeded at 30K cells per well and SKOV-3 cells at 40K cells per well into 96-well plates containing test samples/vehicle control together with 500 μM L-Trp. Cells were then incubated for 48 h at 37° C., 5% CO2. In SK-OV-3 cells, IFNγ was also added at 500 ng/ml for the 48 h incubation in order to induce expression of IDO. Plates were centrifuged and the supernatant was removed and incubated for 5 min in the presence of 1% Erhlich's reagent. Kynurenine levels were then quantified by measuring absorbance at 490 nm.
# TDO (A172 cells) = target: T2, TDO (A172 cells) (Homo sapiens, UniProt P48775); test: TDO cell-based assay (A172), kynurenine production; settings: A172 human glioblastoma cells, 500 μM L-Trp, 48 h, kynurenine by absorbance at 490 nm
# T2 construct: This assay utilised cancer cells which expressed either TDO or IDO; host or cells: A172 human glioblastoma cells
# T2 sequence (P48775 whole entry): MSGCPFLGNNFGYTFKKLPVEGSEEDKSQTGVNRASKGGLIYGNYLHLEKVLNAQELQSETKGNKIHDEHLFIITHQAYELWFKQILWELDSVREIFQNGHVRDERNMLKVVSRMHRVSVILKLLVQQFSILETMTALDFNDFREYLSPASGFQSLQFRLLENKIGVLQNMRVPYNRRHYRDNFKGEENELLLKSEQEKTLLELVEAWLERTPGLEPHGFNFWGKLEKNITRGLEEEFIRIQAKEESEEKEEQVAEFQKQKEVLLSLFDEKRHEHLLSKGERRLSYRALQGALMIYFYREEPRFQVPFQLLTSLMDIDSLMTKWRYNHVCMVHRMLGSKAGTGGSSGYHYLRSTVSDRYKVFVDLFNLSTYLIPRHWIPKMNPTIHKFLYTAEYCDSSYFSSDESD
# Text: as §1, §2
IDO cellular assay (SKOV3) pIC50 (IDO (SKOV-3 cells)),TDO cellular assay (A172) pIC50 (TDO (A172 cells)),SMILES
+ (+ = pIC50 4.50-<5.00),− (− = pIC50 <4.50),O=C(NCc1ccncc1)c1cc2cc(Cl)ccc2[nH]1 [Compound 5]
++ (++ = pIC50 5.00-<5.50),− (− = pIC50 <4.50),CC(NC(=O)c1cc2ccccc2[nH]1)c1cccc(Cl)c1 (stereo not drawn) [Compound 14]
+ (+ = pIC50 4.50-<5.00),− (− = pIC50 <4.50),CC(NC(=O)c1cc2cc(Cl)ccc2[nH]1)c1ccn(C)n1 (stereo not drawn) [Compound 201]
+++ (+++ = pIC50 ≥5.50),− (− = pIC50 <4.50),COc1ccc(-c2noc(CNC(=O)c3cc4cc(Cl)ccc4[nH]3)n2)cc1OC [Compound 113]
+++ (+++ = pIC50 ≥5.50),− (− = pIC50 <4.50),Cn1cc(C2(NC(=O)c3cc4cc(Br)ccc4[nH]3)COC2)cn1 [Compound 238]
+++ (+++ = pIC50 ≥5.50),− (− = pIC50 <4.50),CC(NC(=O)c1cc2c(F)c(Cl)ccc2[nH]1)c1cnn(C)c1 (stereo not drawn) [Compound 193]
+++ (+++ = pIC50 ≥5.50),− (− = pIC50 <4.50),COc1ccc(-n2cc(C(C)NC(=O)c3cc4cc(Cl)ccc4[nH]3)cn2)cc1 (stereo not drawn) [Compound 146]
+++ (+++ = pIC50 ≥5.50),− (− = pIC50 <4.50),O=C(NC1(c2ccccn2)CC1)c1cc2cc(Cl)ccc2[nH]1 [Compound 155]
++ (++ = pIC50 5.00-<5.50),+ (+ = pIC50 4.50-<5.00),CC(NC(=O)c1cc2cc(F)ccc2[nH]1)c1cccc(F)c1 (stereo not drawn) [Compound 22]
+ (+ = pIC50 4.50-<5.00),− (− = pIC50 <4.50),O=C(NC1CCCCC1O)c1cc2cc(Cl)ccc2[nH]1 (stereo not drawn) [Compound 119]
+++ (+++ = pIC50 ≥5.50),− (− = pIC50 <4.50),CC(NC(=O)c1cc2cc(Cl)ccc2[nH]1)c1noc(-c2ccccc2)n1 (stereo not drawn) [Compound 134]
+++ (+++ = pIC50 ≥5.50),− (− = pIC50 <4.50),COc1cccc(-n2cc(CNC(=O)c3cc4cc(Cl)ccc4[nH]3)cn2)c1 [Compound 112]
+++ (+++ = pIC50 ≥5.50),− (− = pIC50 <4.50),CC(NC(=O)c1cc2cc(Cl)ccc2[nH]1)C1CCCC1 (stereo not drawn) [Compound 98]
++ (++ = pIC50 5.00-<5.50),− (− = pIC50 <4.50),CC(NC(=O)c1cc2c(Cl)c(Cl)ccc2[nH]1)c1cccnc1 (stereo not drawn) [Compound 21]
+++ (+++ = pIC50 ≥5.50),++ (++ = pIC50 5.00-<5.50),Cc1cc(C(C)NC(=O)c2cc3cc(Cl)ccc3[nH]2)no1 (stereo not drawn) [Compound 234]
+ (+ = pIC50 4.50-<5.00),− (− = pIC50 <4.50),C[C@@H](NC(=O)c1cc2ccc(C(F)F)cc2[nH]1)c1ccccc1 [Compound 180]
+++ (+++ = pIC50 ≥5.50),− (− = pIC50 <4.50),O=C(NC1(c2ccncc2)CC1)c1cc2cc(Cl)ccc2[nH]1 [Compound 223]
+++ (+++ = pIC50 ≥5.50),− (− = pIC50 <4.50),CCc1ccc2[nH]c(C(=O)NC(C)c3cnn(C)c3)cc2c1 (stereo not drawn) [Compound 243]
+++ (+++ = pIC50 ≥5.50),+ (+ = pIC50 4.50-<5.00),C[C@@H](NC(=O)c1cc2c(F)c(Cl)ccc2[nH]1)c1ccccc1 [Compound 183]
++ (++ = pIC50 5.00-<5.50),− (− = pIC50 <4.50),O=C(NCc1cccc(Cl)c1)c1cc2cc(Cl)ccc2[nH]1 [Compound 33]
+++ (+++ = pIC50 ≥5.50),++ (++ = pIC50 5.00-<5.50),CC(Cc1cnn(C)c1)NC(=O)c1cc2cc(Cl)ccc2[nH]1 (stereo not drawn) [Compound 267]
+++ (+++ = pIC50 ≥5.50),− (− = pIC50 <4.50),CC(NC(=O)c1cc2cc(Br)ccc2[nH]1)c1cnn(C)c1 (stereo not drawn) [Compound 254]
+++ (+++ = pIC50 ≥5.50),− (− = pIC50 <4.50),Cn1cc(C2(NC(=O)c3cc4cc(Br)ccc4[nH]3)CCC2)cn1 [Compound 268]
+++ (+++ = pIC50 ≥5.50),− (− = pIC50 <4.50),COc1ccc2[nH]c(C(=O)NC(C)c3cnn(C)c3)cc2c1 (stereo not drawn) [Compound 186]
+++ (+++ = pIC50 ≥5.50),+++ (+++ = pIC50 ≥5.50),Cc1ncc(C(C)NC(=O)c2cc3cc(C#N)ccc3[nH]2)o1 (stereo not drawn) [Compound 229]
+++ (+++ = pIC50 ≥5.50),− (− = pIC50 <4.50),CCOc1ccc2[nH]c(C(=O)N[C@H](C)c3ccccc3)cc2c1 [Compound 270]
+++ (+++ = pIC50 ≥5.50),+ (+ = pIC50 4.50-<5.00),CC(NC(=O)c1cc2cc(Cl)ccc2[nH]1)c1ccc(F)cc1 (stereo not drawn) [Compound 36]

# Further lines, the compound ahead of its results:
SMILES,IDO cellular assay (SKOV3) pIC50 (IDO (SKOV-3 cells)),TDO cellular assay (A172) pIC50 (TDO (A172 cells))
COc1ccc2[nH]c(C(=O)NC3(c4ccccc4)CC3)cc2c1 [Compound 182],+++ (+++ = pIC50 ≥5.50),− (− = pIC50 <4.50)
C[C@@H](NC(=O)c1cc2cc(F)ccc2n1C)c1ccccc1 [Compound 46],++ (++ = pIC50 5.00-<5.50),− (− = pIC50 <4.50)
C[C@@H](NC(=O)c1cc2c(F)cccc2[nH]1)c1ccccc1 [Compound 62],+++ (+++ = pIC50 ≥5.50),+++ (+++ = pIC50 ≥5.50)
O=C(NC1(c2ccccc2)COC1)c1cc2cc(C(F)(F)F)ccc2[nH]1 [Compound 170],+++ (+++ = pIC50 ≥5.50),+ (+ = pIC50 4.50-<5.00)
N#Cc1ccc2[nH]c(C(=O)NC3(c4ccc(F)cc4)COC3)cc2c1 [Compound 245],+++ (+++ = pIC50 ≥5.50),− (− = pIC50 <4.50)
O=C(NC1(c2ccccc2)COC1)c1cc2cc(Cl)c(F)cc2[nH]1 [Compound 210],+++ (+++ = pIC50 ≥5.50),+ (+ = pIC50 4.50-<5.00)
O=C(NCc1ccccc1)c1cc2ccccc2[nH]1 [Compound 10],− (− = pIC50 <4.50),+ (+ = pIC50 4.50-<5.00)
CCOc1ccc2[nH]c(C(=O)NC3(c4ccccc4)CC3)cc2c1 [Compound 271],+++ (+++ = pIC50 ≥5.50),++ (++ = pIC50 5.00-<5.50)
N#Cc1ccc2[nH]c(C(=O)NC3(c4ccccc4)CCCC3)cc2c1 [Compound 231],+++ (+++ = pIC50 ≥5.50),− (− = pIC50 <4.50)
Cc1c(C(=O)N[C@H](C)c2ccccc2)[nH]c2ccc(F)cc12 [Compound 38],++ (++ = pIC50 5.00-<5.50),+ (+ = pIC50 4.50-<5.00)
Cn1cc(C2(NC(=O)c3cc4cc(Cl)cnc4[nH]3)CC2)cn1 [Compound 177],++ (++ = pIC50 5.00-<5.50),− (− = pIC50 <4.50)
C[C@H](c1ccccc1)N(C)C(=O)c1cc2cc(F)ccc2[nH]1 [Compound 39],++ (++ = pIC50 5.00-<5.50),− (− = pIC50 <4.50)
O=C(NC1(c2ccccc2)CC1)c1cc2cc(Cl)cnc2[nH]1 [Compound 164],+++ (+++ = pIC50 ≥5.50),− (− = pIC50 <4.50)
Cc1cccc2[nH]c(C(=O)NC(C)c3ccccc3)cc12 (stereo not drawn) [Compound 77],+++ (+++ = pIC50 ≥5.50),+ (+ = pIC50 4.50-<5.00)
C[C@@H](c1ccccc1)N(C)C(=O)c1cc2cc(F)ccc2[nH]1 [Compound 59],+ (+ = pIC50 4.50-<5.00),− (− = pIC50 <4.50)
O=C(NC(c1ccccc1)C1CC1)c1cc2c(F)cccc2[nH]1 (stereo not drawn) [Compound 12],+++ (+++ = pIC50 ≥5.50),− (− = pIC50 <4.50)
O=C(Nc1cccc2[nH]ncc12)c1cc2cc(F)ccc2[nH]1 [Compound 1],++ (++ = pIC50 5.00-<5.50),− (− = pIC50 <4.50)
CS(=O)(=O)N1CCC(C2(NC(=O)c3cc4cc(Cl)ccc4[nH]3)CC2)CC1 [Compound 161],+++ (+++ = pIC50 ≥5.50),− (− = pIC50 <4.50)
